This note sets out measurements from ChEMBL document CHEMBL1921793, “Bacterial production of the tunicate-derived antitumor cyclic depsipeptide didemnin B” (J Nat Prod, 2011).

Experiment [1] has as its system HT-29. The experiment in a line: Cytotoxicity against human HT-29 cells after 96 hrs by microplate reader analysis. The experiment is classed as functional, cell-based. As to conditions: HT-29, 96 h.
The subject of experiment [2] is A549. Nature of the experiment: Cytotoxicity against human A549 cells after 96 hrs by microplate reader analysis. In kind it is functional, cell-based. As to conditions: A549, 96 h.

Converted amounts (≈) assume the structure as drawn.

As a reminder, the IC50 is the concentration at which inhibition is half-maximal. On to `CC[C@H](C)[C@@H]1NC(=O)[C@@H](NC(=O)[C@@H](CC(C)C)N(C)C(=O)[C@@H]2CCCN2C(=O)[C@H](C)OC(C)=O)[C@H](C)OC(=O)[C@H](Cc2ccc(OC)cc2)N(C)C(=O)[C@@H]2CCCN2C(=O)[C@H](CC(C)C)NC(=O)[C@@H](C)C(=O)[C@H](C(C)C)OC(=O)C[C@@H]1O` [NORDIDEMNIN B], for which the IC50 in experiment [1] was determined as 10 ng/mL (≈ 8.66 nM); in experiment [2], 7 ng/mL (≈ 6.06 nM).
